Data taken from paper PMC12456999, “Sulfonyl Homoserine Lactones Are Tunable Probes to Inhibit the Quorum Sensing Receptor RhlR and Reduce Swarming Motility in Pseudomonas aeruginosa” (ACS Infectious Diseases, 2025).
Read-outs that look alike come from different tables or passages of the source.

Legend:
P. aeruginosa PAO1 = test: Swarming motility assay; assay type: cell-based, Pseudomonas aeruginosa; conditions: PAO1 + DMSO = 100%, PAO1 ΔrhlR + vehicle = 0%; for reduction in swarming activity relative to the controls: compound at 500 μM
Source text: We next evaluated the ability of the four sulfonyl HLs 39, 43, 59, and 75 capable of inhibiting RhlR in the P. aeruginosa reporter to reduce swarming motility in a wild-type P. aeruginosa strain (PAO1). Swarming is a rapid, group-coordinated movement of a bacterial population across a semisolid surface, linked to increased expression of virulence factors and increased antibiotic resistance and regulated in P. aeruginosa, at least in part, by the Rhl system. The results of these phenotypic assays are shown in Figure (see Methods for protocol). The swarming ability of PAO1 in the presence of vehicle (DMSO) served as a positive control (set to 100%). As a key negative control, we examined the swarming ability of a PAO1 ΔrhlR mutant in the presence of the vehicle and observed […] relative to the positive control (set to 0%).
5 Swarming motility assay data in P. aeruginosa. […] Area of the colony after 42 h incubation was used to calculate swarming activity (see Methods). Positive control = PAO1 treated with vehicle (DMSO, 100%). Negative control = PAO1 ΔrhlR treated with vehicle (0%). Error bars = standard deviation of the means of triplicate samples. (B) Representative images of P. aeruginosa swarming on agar plates used to generate data in panel A.
The motility assay was based in part on a previously reported procedure. P. aeruginosa PAO1 was grown overnight with 500 or 250 μM compound, or vehicle (DMSO), at 37 °C and normalized to OD600 = 0.4. Cells were washed with sterile water twice and resuspended with 500 (39, 43, and 59) or 250 (75) μM fresh compound or vehicle (DMSO), in M8 minimal medium. Cells (5 μL) were spotted in the center of agar plates (100 mm diameter) generated from M8 minimal medium + 1 mM MgSO4 + 0.2% glucose + 0.5% Casamino acids + 0.5% agar. Plates were covered and the cells were grown for 24–48 h at 37 °C prior to imaging (using an iPhone 14 camera). Photographs were analyzed using ImageJ to calculate the area of the swarm and normalized to the area of (P. aeruginosa PAO1 + vehicle) – (P. aeruginosa PDO111 (ΔrhlR) + vehicle).

RhlR = biological target: T1, RhlR (Pseudomonas aeruginosa, UniProt P54292); test: P. aeruginosa PA14 ΔrhlIΔlasI RhlR GFP reporter antagonism assay; assay type: cell-based; conditions: for Max Inhibition (RhlR): P. aeruginosa PA14 ΔrhlIΔlasI, against 4 μM BHL with 10 μM OdDHL, highest concentrations tested
T1 construct: expressed in transfected cells; host or cells: E. coli JLD271 (K-12 ΔlacX74 sdiA271::Cam) carrying pJN105-R2 (RhlR expression) and pSC11-rhlI (rhlI'-lacZ reporter)
Method: We were interested in determining whether these new RhlR antagonists identified in an E. coli RhlR reporter maintained their activity in the native organism, P. aeruginosa. […] Antagonism of RhlR was measured in the presence of BHL and OdDHL (the latter signal was needed to induce the production of RhlR via LasR). […] The reasons for this reduction in activity are likely multifold, but we believe that they may stem from the low permeability of P. aeruginosa to small molecules, its lower (native) level of RhlR expression, its abundance of efflux pumps, and/or the cross-interaction of compounds with other targets (LasR, QscR, and potentially others) that then regulate RhlR. […] Nevertheless, these reporter data for sulfonyl HLs 39, 43, 59, and 75 in P. aeruginosa indicate that these compounds are capable of antagonizing RhlR activity in the native host.
RhlR activity in E. coli strain JLD271 (ΔsdiA) was measured via a β-galactosidase reporter (rhI-lacZ) using the Promega Beta-Glo Assay System as previously described. RhlR activity in P. aeruginosa PA14 (ΔrhlIΔlasI) was measured via a GFP reporter (rhlA-gfp). […] See Supporting Information for both reporter protocols.
Supporting Information — Aguirre-Figueroa et al.
P. aeruginosa RhlR reporter assay. RhlR activity in P. aeruginosa PA14 ΔrhlIΔlasI was measured via a GFP reporter. Briefly, a single colony of P. aeruginosa strain PA14 ΔrhlIΔlasI harboring the transcriptional fusion reporter pPROBE-GT rhlA-GFP (Table S1) was grown in LB medium with 40 μg/mL gentamicin overnight (~20 h). The culture was diluted 1:100 in fresh LB medium, without antibiotic, to an OD600 = 0.25 (0.22–0.30) (~1 h). Aliquots (2 μL) of compound DMSO stock solution or serial dilution were added to the inner wells (i.e., non-periphery rows) of a black, clear bottom 96-well plate. To 12 inner wells, DMSO alone (vehicle) was added to serve as controls (negative and positive). For the six negative control wells (no BHL), 198 μL of bacterial culture plus OdDHL (to achieve 10 μM) were added. For the six positive control wells (no test compound), 198 μL of bacterial culture plus OdDHL (10 μM) and BHL (to achieve 4 μM) were added. To all the remaining wells containing test compound, 198 μL of bacterial culture plus OdDHL (10 μM) and BHL (4 μM) were added. Water (200 μL) was added to the outer (periphery) wells to maintain humidity during incubation. Plates were incubated for 4 h at 37 °C. After incubation, the OD600 and GFP production (excitation at 500 nm, emission at 540 nm) were read for each well using a plate reader. To determine levels of RhlR activity, raw GFP production was divided by OD600 to correct for growth variation and then normalized to the negative (0%) and positive (100%) control wells.
Dose-response reporter assay data for compounds in the P. aeruginosa RhlR reporter.
Dose-response curves for RhlR agonism by BHL and for RhlR antagonism by selected compounds against 4 μM BHL using the P. aeruginosa PA14 RhlR reporter are provided below. Compound names are indicated on the x-axis of each plot. All assays performed in triplicate as at least three separate biological replicates. Error bars indicate SD of n = 3 trials. Curve fits generated using GraphPad Prism software (v9.0) using a variable slope sigmoidal curve fit. IC50 values for antagonists […]
Max Inhibition = 47% Max Inhibition = 59%
Max Inhibition = 49% Max Inhibition = 67%
(also on this page, place not known: % Activity % Activity % Activity % Activity % Activity)

T1 sequence (P54292 whole entry): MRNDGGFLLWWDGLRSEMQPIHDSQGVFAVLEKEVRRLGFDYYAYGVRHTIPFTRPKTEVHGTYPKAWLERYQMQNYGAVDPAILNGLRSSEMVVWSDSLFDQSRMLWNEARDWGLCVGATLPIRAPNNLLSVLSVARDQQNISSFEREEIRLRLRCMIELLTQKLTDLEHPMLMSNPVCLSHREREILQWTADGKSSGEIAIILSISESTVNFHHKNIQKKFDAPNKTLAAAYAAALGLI

For O=C1OCC[C@@H]1NS(=O)(=O)c1cccc(Br)c1 [Compound 39, 3-bromo BSHL], the “reduction in swarming activity relative to the controls” value (P. aeruginosa PAO1) was 60%, the IC50 (RhlR) was greater than 1 mM and the “Max Inhibition (RhlR)” value (RhlR) was 47%.
O=C1OCC[C@@H]1NS(=O)(=O)c1ccc(Cl)c(Cl)c1 [Compound 43, 3,4-di-Cl BSHL] was tested, and the “reduction in swarming activity relative to the controls” value (P. aeruginosa PAO1) was 60%, the IC50 (RhlR) was greater than 1 mM and the “Max Inhibition (RhlR)” value (RhlR) was 59%.
In the case of O=C1OCC[C@@H]1NS(=O)(=O)c1ccc(F)c(F)c1 [Compound 59, 3,4-di-F BSHL], the “reduction in swarming activity relative to the controls” value (P. aeruginosa PAO1) is reported as 60%, the IC50 (RhlR) is reported as greater than 1 mM and the “Max Inhibition (RhlR)” value (RhlR) is reported as 49%.
In the case of CCCCCS(=O)(=O)N[C@H]1CCOC1=O [Compound 75, C5 ASHL], the reduction in swarming (P. aeruginosa PAO1; compound at 250 μM) is reported as 30%, the IC50 (RhlR; P. aeruginosa PA14 ΔrhlIΔlasI RhlR reporter) is reported as greater than 1 mM and the “Max Inhibition (RhlR)” value (RhlR) is reported as 67%.
